From ChEMBL document CHEMBL1151970, “Cardioprotection with the parrodiene 2,4,6-octatrienal and its potassium salt through activation of the Akt-Bcl-2 survival pathway” (2009)
Activity calls are given as the source filed them. The rule behind the calls is not given here.

Tests used:
Heart [1] = assay: Cardioprotective activity in Langendorff perfused Sprague-Dawley rat heart assessed as recovery of left ventricular developed pressure at 50 mM preperfused 15 mins before global ischemia challenge for 30 mins followed by 120 mins of reperfusion; type: functional, tissue-based
Heart [2] = assay: Cardioprotective activity in Langendorff perfused Sprague-Dawley rat heart assessed as recovery of first derivative of left ventricular developed pressure at 50 mM preperfused 15 mins before global ischemia challenge for 30 mins followed by 120 mins of reperfusion; type: functional, tissue-based
Heart [3] = assay: Cardioprotective activity in Langendorff perfused Sprague-Dawley rat heart assessed as recovery of aortic pressure at 50 mM preperfused 15 mins before global ischemia challenge for 30 mins followed by 120 mins of reperfusion; type: functional, tissue-based
Heart [4] = assay: Cardioprotective activity in Langendorff perfused Sprague-Dawley rat heart assessed as reduction in myocardial infarction size at 50 mM preperfused 15 mins before global ischemia challenge for 30 mins followed by 120 mins of reperfusion by triphenyl tetrazolium chloride method; type: functional; design: scale not given: the % may be the effect or the level left
Heart [5] = assay: Cardioprotective activity in Langendorff perfused Sprague-Dawley rat heart assessed as reduction in number of cardiomycotic apoptic cells at 50 mM preperfused 15 mins before global ischemia challenge for 30 mins followed by 120 mins of reperfusion by TUNEL assay; type: functional; design: scale not given: the % may be the effect or the level left
Heart [6] = assay: Cardioprotective activity in Langendorff perfused Sprague-Dawley rat heart assessed as prevention of cytochrom c release from cytosolic fraction at 50 mM preperfused 15 mins before global ischemia challenge for 30 mins followed by 120 mins of reperfusion by Western blotting; type: functional, tissue-based
Heart [7] = assay: Cardioprotective activity in Langendorff perfused Sprague-Dawley rat heart assessed as reduction of pro-caspase 3 activation in ischemic reperfused myocardium at 50 mM preperfused 15 mins before global ischemia challenge for 30 mins followed by 120 mins of reperfusion by Western blotting; type: functional, tissue-based
Heart [8] = assay: Cardioprotective activity in Langendorff perfused Sprague-Dawley rat heart assessed as reduction of caspase 3 activation at 50 mM preperfused 15 mins before global ischemia challenge for 30 mins followed by 120 mins of reperfusion by Western blotting; type: functional, tissue-based
Heart [9] = assay: Cardioprotective activity in Langendorff perfused Sprague-Dawley rat heart assessed as activation of Akt phosphorylation at 50 mM preperfused 15 mins before global ischemia challenge for 30 mins followed by 120 mins of reperfusion; type: functional, tissue-based
Heart [10] = assay: Cardioprotective activity in Langendorff perfused Sprague-Dawley rat heart assessed as […] of Bcl2 at 50 mM preperfused 15 mins before global ischemia challenge for 30 mins followed by 120 mins of reperfusion by Western blotting; type: functional, tissue-based
Heart [11] = assay: Cardioprotective activity in Langendorff perfused Sprague-Dawley rat heart assessed as down regulation of HO1 at 50 mM preperfused 15 mins before global ischemia challenge for 30 mins followed by 120 mins of reperfusion by Western blotting; type: functional, tissue-based

Structure (SMILES) | Activity (Heart [1]) | Activity (Heart [2]) | Activity (Heart [3]) | Activity (Heart [4]) | Activity (Heart [5]) | Activity (Heart [6]) | Activity (Heart [7]) | Activity (Heart [8]) | Activity (Heart [9]) | Activity (Heart [10]) | Activity (Heart [11])
C/C=C/C=C/C=C/C(=O)[O-].[K+] | Active | Active | Active | 15% | 13.6% | Active | Active | Active | Active | Active | Active
C/C=C/C=C/C=C/C=O | Active | Active | Active | 16% | 15% | Active | Active | Active | Active | Active | Active
